Where two headings read alike, the source gives them in different places.
Columns and labels:
[1] = Surface tension of polar and non-polar liquids; type: physicochemical
Description: Fluid-fluid interfacial tension can be measured by many well-established techniques, such as the Wilhelmy plate method, the Du Noüy ring method, and the pendant drop method (e.g., see Drelich et al., in Encyclopedia of Surface and Colloid Science, pp. 3152-3166, Marcel Dekker Inc, 2002, the contents of which is incorporated by reference herein in its entirety). Among all of the techniques, the pendant drop method is among the most popular and versatile technique, which can be easily extended to a two-liquid system. The pendant drop method measures the shape of a fluid-fluid interface and quantifies the shape distortion due to the competition between the fluid-fluid interfacial tension and gravity. In practice, a drop of denser fluid (e.g., Object A) is suspended by a syringe needle in medium X (i.e., air/water/the lubricating fluid). Owing to the influence of gravity, the denser liquid droplet will be deformed as the liquid volume increases. The shape profile of the liquid droplet is captured by an optical system and subsequently analyzed by a computer software when the liquid volume is increased to the maximum possible size (i.e., before the liquid drop is detached from the syringe needle). The interfacial tension of the fluid-fluid interface, γ, can then be deduced from the formula, γ=ΔρgD^2/H, where Δρ is the density difference between the two immiscible fluids, g is gravity, D is equatorial diameter of the liquid droplet, and H is drop shape dependent parameters which is a function of the shape profile of the droplet.

[2] = test system: Pseudomonas aeruginosa (PA-14); assay: Toxicity screening of lubricating fluids by CFU quantification; settings: 1% versus 0.01% of product in tryptone broth, 37° C. overnight, orbital shaker
Method: (§1) The toxicity screening assay was based on adding 1% and 0.01% of each commercial product to 10 mL aliquots of tryptone broth, which were inoculated with 1% initial seeding concentration of Pseudomonas aeruginosa (PA-14) preculture and incubated at 37° C. overnight in an orbital shaker. The shaken culture was serially diluted, plated, and incubated for colony forming unit (CFU) quantification.

[3] = Leaching of infiltrated oil in a microfluidic system under water flow; type: physicochemical
Method: Experiments were conducted to determine whether fluid from SLIPS leach into the surrounding biological fluid. A nanostructured post array surface (2 μm tall posts, 300 nm diameter, 0.9 μm spacing) with infiltrated perfluorinated oil (Fluorinert FC-70) was integrated into a microfluidic system. Deionized water flowed into the channel at a rate of 12 mL/min (i.e., 720 mL/hr) for 5 minutes. […] The slipperiness of the surface was examined by putting a droplet of decane on the surface. If decane applied to the surface maintains its mobility on the surface, then the lubricants remain attached on the structured surface. However, if decane remains pinned on the surface, the lubricant layer has not been maintained. Leaching can also be monitored by extracting fluid that has passed over SLIPS into a fluorinated solvent followed by followed by chromatography and mass spectrometry and 19F-NMR.
Defining maximum leaching of the infiltrated fluid as the ratio between the total amounts of the perfluorinated oil infiltrated the surface and the volume of water processed in the microfluidic system, the maximum leaching was <0.2%. Because perfluorocarbons are already approved by the Food and Drug Administration as blood substitutes, leaching of this amount of oil is expected to be harmless. […]

[4] = Contact angles of various liquids on flat solids; type: physicochemical; parameters: unit not given here
Method: The behavior of liquids on surfaces is described by an equilibrium contact angle. An equilibrium contact angle, θ, is the angle at which a liquid/vapor interface meets a solid surface, which is determined by the interactions across the three interfaces, e.g., solid/liquid/vapor. […] The upper limit is known as the apparent advancing contact angle (θA), whereas the lower limit is referred as the apparent receding contact angle (θR). The difference between these values is known as contact angle hysteresis (i.e., Δθ=θA−θR, where θA≥θ≥θR), which characterizes the liquid repellency of a surface. Conventionally, equilibrium contact angle can be roughly estimated by the average of the advancing and receding angles (i.e., θ=(θA+θR)/2), or by a static contact angle, θstatic (i.e., θ=θstatic).
In practice, contact angle measurement can be performed by a number of different well-established techniques, such as the sessile drop method and the Wilhelmy method. In particular, the sessile drop method is among the most popular technique for contact angle measurement. In this technique, a liquid droplet is deposited on a targeted solid surface, where the liquid profile is captured by an optical system of a goniometer and geometrically fitted to obtain the contact angle. The contact angle measured from a static liquid droplet deposited on the surface is known as the static contact angle, θstatic. Using the same system, advancing contact angle, θA, can be measured while the volume of the drop is increasing until the wetting line starts to advance. Receding contact angle, θR, can be measured by decreasing the volume of the drop and determining the contact angle just before the wetting line recedes. Alternatively, the advancing and the receding angles of the liquid drop can also be determined by gradually tilting the solid surface until the liquid drop starts to move.

P. aeruginosa = settings: 1% and 0.1% concentrations; 3, 6, 9, and 30 hours; 550 nm
[5] = test system: Pseudomonas aeruginosa (PA-14)
Method: as §1

[6] = flat solid S. (silanized epoxy)

Structure (SMILES) | Surface Tension [1] [mN/m] | toxicity screening, CFU [2] | retention of infiltrated oil on nanostructured surface ([3]; deionized water 12 mL/min for 5 minutes, nanostructured post array) | maximum leaching ([3]; ratio of total infiltrated oil to volume of water processed) [%] | Measured contact angle θadv ([4]; flat solid Epoxy) | Measured contact angle θrec ([4]; flat solid Epoxy) | Measured contact angle θstatic ([4]; flat solid Epoxy) | Measured contact angle θadv [4, 6] | Measured contact angle θrec [4, 6] | Measured contact angle θstatic [4, 6] | bacterial growth (optical densities) compared to control culture (P. aeruginosa) | toxicity screening, CFU [5]
FC(F)(F)C(F)(F)C(F)(F)C(F)(F)C(F)(F)N(C(F)(F)C(F)(F)C(F)(F)C(F)(F)C(F)(F)F)C(F)(F)C(F)(F)C(F)(F)C(F)(F)C(F)(F)F [FC-70, perfluoro-tripentylamine] | 17.1 ± 0.3 | Significantly reduced CFU | remained intact | < 0.2 | 35.1 ± 0.6 | 26.7 ± 1.4 | 33.5 ± 1.1 | 23.7 ± 4.1 | 0.0 ± 0.0 | 14.1 ± 0.8 | statistically indistinguishable bacterial growth | –
FC1(F)C(F)(F)C(F)(F)C2(F)C(F)(F)C(F)(F)C(F)(F)C(F)(F)C2(F)C1(F)F (stereo not shown) [Perfluorodecalin] | – | – | – | – | – | – | – | – | – | – | statistically indistinguishable bacterial growth | Significantly reduced CFU
